In US20220047718A1, “Nanoparticle-Based Therapy of Inflammatory Disorders” (priority 2018, published 2022):

How the values were obtained:
[1] = tested on: Imiquimod (IMQ)-induced mouse model of psoriasis
Experimental: (a) Experimental Scheme of three-day IMQ treatment with seven-day systemic therapy. (b) (upper panel) change in ear thickness between control (PBS; crosses), IMQ-treated (squares), and systemic MTX therapy receiving (1 mg/kg (upward triangles), 2 mg/kg (downward triangles), 5 mg/kg (diamonds)) animals. (Lower panels) statistical analysis of ear thickness differences between groups between days 4-7.
(a) (upper panel), change in ear thickness between control (PBS, crosses), IMQ-treated (squares), and systemic therapy receiving in addition to IMQ, 2 mg/kg MTX (upward triangles), GNPs containing 5.5 mg/kg Au (downward triangles), and MTX-GNP containing 2 mg/kg MTX and 5.5 mg/kg Au (diamonds). (Lower panels) statistical analysis of ear thickness differences between groups between days 4-7. […] Data is pooled from 2-3 independent experiments, 2 to 5 mice per condition and represented as mean±standard deviation.
Clinical efficacy and in vivo tolerability were assessed against relevant controls for both systemic (subcutaneous injection) and topical administration.
First, we evaluated tolerance of mice to MTX with a dose escalation setup (FIG. 2b).

[2] = Formulation into Carbopol 980 gel: precipitation / homogeneity; format: physicochemical; conditions: for precipitation / homogeneity in 2% Carbopol 980 gel: Carbopol 980 adjusted to pH 7.4 prior to addition
Experimental: Gels were prepared by dispersing 1-3% w/v of Carbopol polymer (w/v) into purified water with constant mixing and thus allowed to hydrate for 5 hours. Care was taken to avoid air entrapment by agitating the solution slowly on a rocker during preparation of the gel. After 5 hours, the pH of the gel was adjusted to pH 7.4 using triethylamine (Sigma-Aldrich, Lot #STBF616V) to neutralise the pH and turn the solution into a gel (triethanolamine is contemplated herein as a suitable alternative to triethylamine).
For production of methotrexate-GNP hydrogel, 2% w/v Carbopol®980 was initially dispersed for 5 hours with constant mixing. […] Plain methotrexate drug gel was prepared by dissolving MTX-PEG3-NH2 in water and adjusting the pH to pH 4.5. The MTX-PEG3-NH2 solution was added to the previously made 2% Carbopol®980 solution.
The method for formulating gold nanoparticles into Carbopol®980 gels was optimised by testing the effects of pH and speed of addition of nanoparticles using control [α-Gal][PEG8COOH]@Au GNPs. […] The gels were all stored at 4° C.
For production of methotrexate-GNP hydrogel, 2% w/v Carbopol®980 was dispersed for 5 hours with constant mixing. The pH of the Carbopol®980 solution was adjusted to pH 7.4 to produce a clear gel. […] Plain methotrexate drug gel was prepared by adding MTX-PEG3-NH2 dissolved in water to the pH 7.4 adjusted Carbopol®980 gel (2%).

| SMILES | animal wellbeing ([1]; mouse, in vivo) | tolerability / systemic toxicity (liver enzyme measurements, daily weight monitoring) ([1]; mouse, in vivo, sc, 2 mg/kg) | IMQ-induced inflammation (ear thickness) ([1]; systemic (subcutaneous), 2 mg/kg MTX daily) | ear thickness / inflammation control ([1]; systemic MTX 5 mg/kg daily) | precipitation / homogeneity in 2% Carbopol 980 gel [2] | precipitation / homogeneity in 2% Carbopol 980 gel ([2]; listed as modified methotrexate) | precipitation on addition to 2% Carbopol 980 solution ([2]; acidic addition (GNPs pH 2.6; MTX-PEG3-NH2 pH 4.5), Carbopol not neutralised) |
| --- | --- | --- | --- | --- | --- | --- | --- |
| CN(Cc1cnc2nc(N)nc(N)c2n1)c1ccc(C(=O)N[C@@H](CCC(=O)O)C(=O)O)cc1 [MTX, Methotrexate] | irrevocably impaired animal wellbeing | tolerable | no significant inflammation control | clinically effective |  |  |  |
| CN(Cc1cnc2nc(N)nc(N)c2n1)c1ccc(C(=O)NC(CCC(=O)NCCCOCCOCCOCCCN)C(=O)O)cc1 (stereo not shown) [MTX-PEG3-NH2, 4-[(3-{2-[2-(3-aminopropoxy)ethoxy]ethoxy}propyl)carbamoyl]-2-[(4-{[(2,4-diaminopteridin-6-yl)methyl](methyl)amino}phenyl)formamido]butanoic acid] |  |  |  |  | no precipitation | without precipitation | small level of yellow precipitation |
